According to patent US4554273A, “2-Amino-5-phenyl-1,3-benzodiazepines” (Lipha Lyonnaise Industrielle Pharmaceutique, priority 1983, dated 1985):
Where a name gives a salt, the structure may show the parent alone.

Tests used:
Reserpine ptosis = experiment: inhibition of reserpine ptosis (oral); assay type: in vivo; conditions: Mus musculus, 1.5 h, Swiss mice, reserpine 5 mg/kg intraperitoneal, compounds orally at the same time, ptosis marked 1 h 30 min later
Protocol: The mood-modifying activity of the compounds is evaluated by standardized tests such as inhibition of known reserpine ptosis. Reserpine ptosis may be induced by methods such as those described in the literature. For example, Rubin, et al, [J. Pharmacol, Exp. Ther. 120: 125(1957)] induced ptosis in Swiss mice by intraperitoneal injection of 5 mg/kg of reserpine. This ptosis was marked 1 h 30 min later. Compounds to be tested for reserpine inhibition were administered orally at the same time as the reserpine was injected.

[1] = lethal dose (LD50) determined orally in Swiss mice; conditions: mouse, in vivo, oral

SMILES	ED50 (Reserpine ptosis) [mg/kg]	LD50 [1] [mg/kg]
NC1=Nc2ccccc2C(c2ccccc2)CN1 (centres unmarked) [Example 1, 2-Amino-5-phenyl-4,5-3H-dihydro-1,3-benzodiazepine hydrochloride]	18	600
Cc1ccc(C2CNC(N)=Nc3ccc(C)cc32)cc1 (centres unmarked) [Example 8, 2-Amino-7-methyl-5-(4-methylphenyl)-4,5-3H-dihydro-1,3-benzodiazepine hydrochloride]	3	2400
NC1=Nc2ccccc2C(c2ccc(Cl)cc2)CN1 (centres unmarked) [Example 4, 2-Amino-5-(4-chlorophenyl)-4,5-3H-dihydro-1,3-benzodiazepine hydrochloride]	11	1200
Cc1ccc(C2CNC(N)=Nc3ccccc32)cc1 (centres unmarked) [Example 3, 2-Amino-5-(4-methylphenyl)-4,5-3H-hydro-1,3-benzodiazepine hydrochloride]	10	330
CN(C)CCC=C1c2ccccc2CCc2ccccc21 [AMITRIPTYLINE, 5-(3-dimethylaminopropylidene)dibenzo[a,d]-1,4-cycloheptadiene hydrochloride, reference compound]	10	
CCOC(=O)NC1=Nc2ccccc2C(c2ccccc2)CN1 (centres unmarked) [Example 48, 2-amino-(5-Phenyl-4,5-3H-dihydro-1,3-benzodiazepin)yl ethyl carbamate]	13	> 3200
